IC50 data for 35 compounds are collected here from patent publication US11427558B1, “Indazoles and azaindazoles as LRRK2 inhibitors” (ESCAPE Bio, Inc., priority 2019, dated 2022).

In assay [1] the target is Recombinant G2019S-LRRK2 protein (Homo sapiens (Human), UniProt Q5S007, G2019S). As to the kind of experiment: LRRK2 kinase activity, LanthaScreen TR-FRET assay (G2019S). It is filed as biochemical. Particulars: LRRKtide 400 nM, 25 μM ATP, 60 min. Put shortly:
(§1)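 Recombinant human wild-type or G2019S LRRK2 phosphorylated fluorescein-labelled LRRKtide (ERM-based) with ATP and serially diluted compound for 60 min at room temperature.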

Assay [2] addresses Recombinant wild type LRRK2 protein (Homo sapiens (Human), UniProt Q5S007). As to the kind of experiment: LRRK2 kinase activity, LanthaScreen TR-FRET assay (wild type). Particulars: LRRKtide 400 nM, 25 μM ATP, 60 min; read-out: LRRK2 WT IC50. In kind it is biochemical. Put shortly: as §1
Background: In TR-FRET formats the signal depends on donor and acceptor labels being close together.

By IC50 is commonly meant the concentration that gives 50% inhibition.

Sequence of Recombinant G2019S-LRRK2 protein (Q5S007 whole entry G2019S): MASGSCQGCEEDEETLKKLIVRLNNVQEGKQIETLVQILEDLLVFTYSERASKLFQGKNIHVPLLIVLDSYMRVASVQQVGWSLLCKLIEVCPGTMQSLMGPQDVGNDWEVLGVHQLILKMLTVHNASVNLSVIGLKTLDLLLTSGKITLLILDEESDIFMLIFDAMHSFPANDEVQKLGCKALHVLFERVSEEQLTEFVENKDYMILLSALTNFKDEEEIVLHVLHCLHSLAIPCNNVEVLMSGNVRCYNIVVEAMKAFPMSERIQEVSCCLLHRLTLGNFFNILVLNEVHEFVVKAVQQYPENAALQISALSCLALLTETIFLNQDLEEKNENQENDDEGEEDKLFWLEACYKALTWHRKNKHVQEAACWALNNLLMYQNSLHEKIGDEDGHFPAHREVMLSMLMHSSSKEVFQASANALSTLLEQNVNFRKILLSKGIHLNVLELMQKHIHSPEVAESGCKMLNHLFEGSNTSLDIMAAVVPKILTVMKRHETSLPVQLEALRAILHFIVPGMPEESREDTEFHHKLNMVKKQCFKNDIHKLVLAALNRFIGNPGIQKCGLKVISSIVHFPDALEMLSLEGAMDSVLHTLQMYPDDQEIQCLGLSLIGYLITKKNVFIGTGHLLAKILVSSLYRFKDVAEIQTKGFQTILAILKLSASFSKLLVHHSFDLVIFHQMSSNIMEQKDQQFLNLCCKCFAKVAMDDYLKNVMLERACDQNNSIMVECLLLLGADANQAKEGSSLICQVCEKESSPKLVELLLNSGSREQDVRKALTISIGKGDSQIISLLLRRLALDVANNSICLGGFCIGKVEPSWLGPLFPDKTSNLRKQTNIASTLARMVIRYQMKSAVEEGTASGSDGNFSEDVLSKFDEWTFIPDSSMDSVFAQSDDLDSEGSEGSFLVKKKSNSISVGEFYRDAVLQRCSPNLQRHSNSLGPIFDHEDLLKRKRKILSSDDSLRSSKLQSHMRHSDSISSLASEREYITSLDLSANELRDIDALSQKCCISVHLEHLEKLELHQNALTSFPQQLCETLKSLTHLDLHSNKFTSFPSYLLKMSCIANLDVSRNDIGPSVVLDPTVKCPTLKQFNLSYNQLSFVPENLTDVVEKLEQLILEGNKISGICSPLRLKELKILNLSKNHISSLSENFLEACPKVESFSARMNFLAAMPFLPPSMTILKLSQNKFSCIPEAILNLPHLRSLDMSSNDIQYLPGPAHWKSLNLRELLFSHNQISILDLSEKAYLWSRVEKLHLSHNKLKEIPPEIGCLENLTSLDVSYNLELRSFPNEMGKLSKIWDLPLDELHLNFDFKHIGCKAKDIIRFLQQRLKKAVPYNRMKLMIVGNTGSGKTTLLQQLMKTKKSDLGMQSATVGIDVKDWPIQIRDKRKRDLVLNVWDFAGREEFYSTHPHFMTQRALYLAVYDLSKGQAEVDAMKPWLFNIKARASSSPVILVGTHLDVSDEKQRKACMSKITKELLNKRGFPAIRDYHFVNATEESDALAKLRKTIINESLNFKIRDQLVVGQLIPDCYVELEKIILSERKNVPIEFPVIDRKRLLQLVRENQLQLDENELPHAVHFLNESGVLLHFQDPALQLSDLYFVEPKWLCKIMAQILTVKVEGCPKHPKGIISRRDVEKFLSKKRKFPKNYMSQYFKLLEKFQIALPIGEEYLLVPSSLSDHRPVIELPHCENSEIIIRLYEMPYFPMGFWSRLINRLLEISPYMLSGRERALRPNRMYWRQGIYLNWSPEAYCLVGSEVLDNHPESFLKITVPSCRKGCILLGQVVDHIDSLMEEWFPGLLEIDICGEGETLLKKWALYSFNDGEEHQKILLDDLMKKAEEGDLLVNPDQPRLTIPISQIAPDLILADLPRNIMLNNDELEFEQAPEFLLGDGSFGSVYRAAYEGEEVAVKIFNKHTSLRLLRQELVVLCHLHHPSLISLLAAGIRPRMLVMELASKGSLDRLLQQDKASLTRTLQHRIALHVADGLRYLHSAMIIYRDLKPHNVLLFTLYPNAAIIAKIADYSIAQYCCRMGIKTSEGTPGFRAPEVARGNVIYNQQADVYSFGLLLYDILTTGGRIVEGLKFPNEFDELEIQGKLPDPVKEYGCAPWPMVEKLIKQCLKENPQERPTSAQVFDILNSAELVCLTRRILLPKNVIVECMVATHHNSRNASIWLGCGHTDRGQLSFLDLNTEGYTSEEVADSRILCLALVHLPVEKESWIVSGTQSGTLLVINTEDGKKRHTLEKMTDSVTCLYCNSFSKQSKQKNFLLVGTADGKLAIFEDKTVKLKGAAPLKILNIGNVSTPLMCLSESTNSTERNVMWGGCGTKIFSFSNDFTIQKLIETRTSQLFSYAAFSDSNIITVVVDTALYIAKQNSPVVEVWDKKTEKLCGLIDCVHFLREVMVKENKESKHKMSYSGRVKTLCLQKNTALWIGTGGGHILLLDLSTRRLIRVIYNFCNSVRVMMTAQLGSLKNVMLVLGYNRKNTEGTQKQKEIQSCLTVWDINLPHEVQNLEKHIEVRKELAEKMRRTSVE
Sequence of Recombinant wild type LRRK2 protein (Q5S007 whole entry): as the sequence (Q5S007 whole entry G2019S) above, with S2019G counted along it

Turning to `C/C=C/c1n[nH]c2ccc(NC(=O)c3nc(Cl)c(C#N)c(C)c3C)cc12` [Example 282, (E)-6-chloro-5-cyano-3,4-dimethyl-N-(3-(prop-1-en-1-yl)-1H-indazol-5-yl)picolinamide], the IC50 in assay [1] and in assay [2] was less than 100 nM each time.

Take `N#Cc1cccc(C(=O)Nc2ccc3[nH]nc(-c4cnn(C(F)F)c4)c3c2)c1F` [Example 167, 3-Cyano-N-(3-(1-(difluoromethyl)-1H-pyrazol-4-yl)-1H-indazol-5-yl)-2-fluorobenzamide]: the IC50 in assay [1] and in assay [2] was less than 100 nM each time.

For the compound `N#Cc1ccc(C(=O)Nc2ccc3[nH]nc(-c4ccoc4)c3c2)c(Cl)c1` [Example 5, 2-Chloro-4-cyano-N-(3-(furan-3-yl)-1H-indazol-5-yl)benzamide], the IC50 in assay [1] and in assay [2] was less than 100 nM in each case.

Take `COc1c(C#N)cnc(C(=O)Nc2ccc3[nH]nc(-c4cnco4)c3c2)c1C` [Example 211, 5-Cyano-4-methoxy-3-methyl-N-(3-(oxazol-5-yl)-1H-indazol-5-yl)picolinamide]: the IC50 in assay [1] and in assay [2] was less than 100 nM in each case.

As to `COc1cc(C(=O)Nc2ccc3[nH]nc(-c4cnco4)c3c2)nc(C)c1C#N` [Example 258, 5-Cyano-4-methoxy-6-methyl-N-(3-(oxazol-5-yl)-1H-indazol-5-yl)picolinamide], the IC50 in assay [1] is less than 100 nM; in assay [2], 1000 to 10000 nM.

Consider `Cc1c(C(=O)Nc2ccc3[nH]nc(-c4ccoc4)c3c2)nn(C)c1C#N` [Example 93, 5-Cyano-N-(3-(furan-3-yl)-1H-indazol-5-yl)-1,4-dimethyl-1H-pyrazole-3-carboxamide], for which the IC50 in assay [1] and in assay [2] was 100 to 1000 nM throughout.

As for `COc1cccc(-c2n[nH]c3ccc(NC(=O)c4ncc(C#N)cc4C4CC4)cc23)c1` [Example 311, 5-Cyano-3-cyclopropyl-N-(3-(3-methoxyphenyl)-1H-indazol-5-yl)picolinamide], the results for the IC50 in assay [1] and in assay [2] were less than 100 nM and 100 to 1000 nM, respectively.

`Cc1c(C#N)cnc(C(=O)Nc2ccc3[nH]nc(C=C4CCN(C(=O)OC(C)(C)C)CC4)c3c2)c1C` [Example 259, tert-butyl 4-((5-(5-Cyano-3,4-dimethylpicolinamido)-1H-indazol-3-yl)methylene)piperidine-1-carboxylate]: the IC50 in assay [1] and in assay [2] was greater than 10000 nM each time.

Take `Cc1c(C#N)cccc1C(=O)Nc1cc(C)c2[nH]nc(-c3ccoc3)c2c1` [Example 88, 3-cyano-N-(3-(furan-3-yl)-7-methyl-1H-indazol-5-yl)-2-methylbenzamide]: the IC50 in assay [1] is 100 to 1000 nM; in assay [2] it was 1000 to 10000 nM.

With `Cc1c(C(=O)Nc2ccc3[nH]nc(C4CC4)c3c2)nc(C(F)(F)F)c(C#N)c1C` [Example 328, 5-Cyano-N-(3-cyclopropyl-1H-indazol-5-yl)-3,4-dimethyl-6-(trifluoromethyl)picolinamide], the IC50 in assay [1] and in assay [2] was less than 100 nM in each case.

As to `COc1n[nH]c2ccc(NC(=O)c3ncc(C#N)c(C(F)(F)F)c3C)cc12` [Example 285, 5-Cyano-N-(3-methoxy-1H-indazol-5-yl)-3-methyl-4-(trifluoromethyl)picolinamide], the IC50 was less than 100 nM in assay [1] and 1000 to 10000 nM in assay [2].

For the compound `Cc1cc(C#N)cnc1C(=O)Nc1ccc2[nH]nc(-n3ccoc3=O)c2c1` [Example 242, 5-Cyano-3-methyl-N-(3-(2-oxooxazol-3(2H)-yl)-1H-indazol-5-yl)picolinamide], the IC50 in assay [1] is less than 100 nM; in assay [2] it was 1000 to 10000 nM.

Take `Cc1c(C#N)noc1C(=O)Nc1ccc2[nH]nc(-c3ccoc3)c2c1` [Example 180, 3-Cyano-N-(3-(furan-3-yl)-1H-indazol-5-yl)-4-methylisoxazole-5-carboxamide]: the IC50 in assay [1] and in assay [2] was 100 to 1000 nM throughout.

Consider `Cc1ncc(-c2n[nH]c3ccc(NC(=O)c4ncc(C#N)cc4C)cc23)s1` [Example 140, 5-Cyano-3-methyl-N-(3-(2-methylthiazol-5-yl)-1H-indazol-5-yl)picolinamide], for which the IC50 in assay [1] and in assay [2] was less than 100 nM each time.

Regarding `Cc1cc(C#N)cnc1C(=O)Nc1ccc2[nH]nc(-n3cccn3)c2c1` [Example 136, N-(3-(1H-Pyrazol-1-yl)-1H-indazol-5-yl)-5-cyano-3-methylpicolinamide], the figures for the IC50 in assay [1] and in assay [2] were 100 to 1000 nM and 1000 to 10000 nM, respectively.

As to `Cc1cc(C#N)cnc1C(=O)Nc1ccc2[nH]nc(-c3cccc(P(C)(C)=O)c3)c2c1` [Example 319, 5-Cyano-N-(3-(3-(dimethylphosphoryl)phenyl)-1H-indazol-5-yl)-3-methylpicolinamide], the figures for the IC50 in assay [1] and in assay [2] were less than 100 nM and 100 to 1000 nM, respectively.

For `Cc1cc(C#N)cnc1C(=O)Nc1ccc2[nH]nc(-c3cnoc3C)c2c1` [Example 36, 5-Cyano-3-methyl-N-(3-(5-methylisoxazol-4-yl)-1H-indazol-5-yl)picolinamide], the results for the IC50 in assay [1] and in assay [2] were less than 100 nM and greater than 10000 nM, respectively.

For `Cc1cc(C#N)cnc1C(=O)Nc1ccc2[nH]nc(-c3ccnc(Br)c3)c2c1` [Example 103, N-(3-(2-Bromopyridin-4-yl)-1H-indazol-5-yl)-5-cyano-3-methylpicolinamide], the IC50 in assay [1] and in assay [2] was less than 100 nM in each case.

As for `Cc1n[nH]c2ccc(NC(=O)c3cccc(C#N)c3C(C)C)cc12` [Example 295, 3-Cyano-2-isopropyl-N-(3-methyl-1H-indazol-5-yl)benzamide], the results for the IC50 in assay [1] and in assay [2] were less than 100 nM and 100 to 1000 nM, respectively.

On to `N#Cc1cc(C(=O)Nc2ccc3[nH]nc(-c4ccoc4)c3c2)no1` [Example 82, 5-Cyano-N-(3-(furan-3-yl)-1H-indazol-5-yl)isoxazole-3-carboxamide], for which the IC50 in assay [1] and in assay [2] was less than 100 nM each time.

`Cc1cc(C#N)cnc1C(=O)Nc1ccc2[nH]nc(-c3cnoc3)c2c1` [Example 146, 5-Cyano-N-(3-(isoxazol-4-yl)-1H-indazol-5-yl)-3-methylpicolinamide]: the values for the 50% inhibitory concentration (IC50) in assay [1] and in assay [2] were less than 100 nM and 100 to 1000 nM, respectively.

Turning to `Cc1cc(C#N)cnc1C(=O)Nc1ccc2[nH]nc(-c3ccc(Cl)s3)c2c1` [Example 139, N-(3-(5-Chlorothiophen-2-yl)-1H-indazol-5-yl)-5-cyano-3-methylpicolinamide], the IC50 was less than 100 nM in assay [1] and 1000 to 10000 nM in assay [2].

For `Cc1nc(C(=O)Nc2ccc3[nH]nc(-c4cnco4)c3c2)c(C)c(C)c1C#N` [Example 202, 5-Cyano-3,4,6-trimethyl-N-(3-(oxazol-5-yl)-1H-indazol-5-yl)picolinamide], the IC50 in assay [1] and in assay [2] was less than 100 nM each time.

With `Cc1cc(C#N)cnc1C(=O)Nc1ccc2[nH]nc(-c3ccoc3)c2c1` [Example 14, 5-Cyano-N-(3-(furan-3-yl)-1H-indazol-5-yl)-3-methylpicolinamide], the IC50 in assay [1] is […]; in assay [2] it was […].

On to `N#Cc1cnc(C(=O)Nc2ccc3[nH]nc(-c4ccoc4)c3c2)c(O)c1` [Example 154, 5-Cyano-N-(3-(furan-3-yl)-1H-indazol-5-yl)-3-hydroxypicolinamide], for which the IC50 in assay [1] was less than 100 nM; in assay [2] it was 100 to 1000 nM.

For `Cc1c(C(=O)Nc2ccc3[nH]nc(C4CC4)c3c2)nc(C2CC2)c(C#N)c1C` [Example 334, 5-Cyano-6-cyclopropyl-N-(3-cyclopropyl-1H-indazol-5-yl)-3,4-dimethylpicolinamide], the IC50 is less than 100 nM in assay [1] and 100 to 1000 nM in assay [2].

With `Cc1c(C#N)cnc(C(=O)Nc2ccc3[nH]nc(C4CC4C(F)(F)F)c3c2)c1C` (stereo not shown) [Example 265, 5-Cyano-3,4-dimethyl-N-(3-(2-(trifluoromethyl)cyclopropyl)-1H-indazol-5-yl)picolinamide], the IC50 in assay [1] fell in the range of 100 to 1000 nM; in assay [2], 1000 to 10000 nM.

Consider `C#Cc1cc(C#N)cnc1C(=O)Nc1ccc2[nH]nc(-c3ccoc3)c2c1` [Example 150], for which the IC50 in assay [1] and in assay [2] was 100 to 1000 nM each time.

For `COc1c(C#N)cccc1C(=O)Nc1ccc2[nH]nc(-c3cnco3)c2c1` [Example 176, 3-Cyano-2-methoxy-N-(3-(oxazol-5-yl)-1H-indazol-5-yl)benzamide], the IC50 in assay [1] and in assay [2] was less than 100 nM in each case.

Take `Cc1cc(C#N)cnc1C(=O)Nc1ccc2[nH]nc(-c3cncs3)c2c1` [Example 110, 5-Cyano-3-methyl-N-(3-(thiazol-5-yl)-1H-indazol-5-yl)picolinamide]: the 50% inhibitory concentration (IC50) was less than 100 nM in assay [1] and 100 to 1000 nM in assay [2].

Regarding `COc1cc(C#N)ccc1C(=O)Nc1ccc2[nH]nc(-c3cnco3)c2c1` [Example 200, 4-Cyano-2-methoxy-N-(3-(oxazol-5-yl)-1H-indazol-5-yl)benzamide], the 50% inhibitory concentration (IC50) in assay [1] and in assay [2] was less than 100 nM each time.

As for `COc1n[nH]c2ccc(NC(=O)c3nc(Cl)c(C#N)c(C)c3C)cc12` [Example 308, 6-Chloro-5-cyano-N-(3-methoxy-1H-indazol-5-yl)-3,4-dimethylpicolinamide], the IC50 in assay [1] and in assay [2] was less than 100 nM throughout.

`N#Cc1cnc(C(=O)Nc2ccc3[nH]nc(-c4cnco4)c3c2)c(C2CC2)c1` [Example 312, 5-Cyano-3-cyclopropyl-N-(3-(oxazol-5-yl)-1H-indazol-5-yl)picolinamide]: the values for the IC50 in assay [1] and in assay [2] were less than 100 nM and 100 to 1000 nM, respectively.

With `Cc1c(C#N)cnc(C(=O)Nc2ccc3[nH]nc(C4(C)CC4)c3c2)c1C` [Example 268, 5-Cyano-3,4-dimethyl-N-(3-(1-methylcyclopropyl)-1H-indazol-5-yl)picolinamide], the IC50 fell in the range of 100 to 1000 nM in assay [1] and 1000 to 10000 nM in assay [2].

Regarding `Cc1nc(C(=O)Nc2ccc3[nH]nc(C)c3c2)c(C)c(C)c1C#N` [Example 325, 5-Cyano-3,4,6-trimethyl-N-(3-methyl-1H-indazol-5-yl)picolinamide], the figures for the IC50 in assay [1] and in assay [2] were less than 100 nM and 1000 to 10000 nM, respectively.
